The results in this text go back to ChEMBL document CHEMBL2046275, “Cellular quantitative structure-activity relationship (Cell-QSAR): conceptual dissection of receptor binding and intracellular disposition in antifilarial activities of Selwood antimycins” (J Med Chem, 2012).

This test relates to Acanthocheilonema viteae. The experiment in a line: Antifilarial activity against Dipetalonema viteae after 120 hrs. In kind it is functional, organism-based. As to conditions: read-out: log(1/EC50) (converted).
With `O=C(Nc1ccc(Nc2ccc(SC(F)(F)F)cc2)c(Cl)c1)c1cc([N+](=O)[O-])ccc1O`, the EC50 is 0.028 µM.

As to `O=C(Nc1ccc(C(O)c2ccccc2)cc1)c1cc([N+](=O)[O-])ccc1O` (stereo not drawn), the EC50 is greater than 10 µM.

Regarding `CCCCCCNC(=O)c1cccc(NC=O)c1O`, the EC50 is greater than 10 µM.
